Assays:
Format in all cases: in vivo
FT gene = FT gene induction levels in sprayed transgenic arabidopsis plants (real-time RT-PCR); settings: for fold gene induction: short day conditions
Protocol: Total RNA was converted to cDNA using standard protocols using 1-5 ug of RNA as measured by OD260.
Quantitative RT-PCR was performed in the BioRad iCycler instrument using standard protocols and SyberGreen as reporting dye
Actin gene levels were assayed using oligonucleotides GTF037 (Seq ID. No. 28) 5′[…]3′ and GTF038 (Seq ID No. 29) 5′[…]3′, and served as standards to normalize measurements of other genes.
To create a copy number calibration curve for individual genes, standards were made up from corresponding PCR products, measuring their concentration using gel serial dilution methods and spectrophotometry. Standard copy numbers were varied from 1 to 10^8 with 10× increments.
Amplifications were performed in triplicates, error rates were estimated by adding the average variance between triplicate samples, and average error of the standard curve fit of the standards of both the gene of interest and of the actin standard.
We have also measured the FT gene induction levels in the sprayed transgenic arabidopsis plants compared with the non-sprayed or non-transgenic controls in plants grown in short day conditions, the results are summarized in the table below:
The methodology we used to measure the gene induction levels was essentially the same as described elsewhere in the patent, except that we used the arabidopsis gene-specific primers NIK13 5′[…]3′ (SEQ ID NO: 34) and NIK14 5′[…]3′ (SEQ ID NO: 35).

[1] = system: Arabidopsis plants containing the pHTOP::FT inducible construct; test: Time to flowering of arabidopsis plants sprayed with DEX inducer; parameters: time to flowering: unit not given here
[2] = system: transgenic arabidopsis plants carrying both the pHTOP-FT construct and the LhG4-GR construct; test: Transgenic arabidopsis grown in the presence of DEX: flowering and GUS staining
Protocol: (A) A plant grown on a 30 μM MS-DEX plate; (B) No DEX control; (C) and (D) GUS staining of leaves from induced plants; (E) GUS staining of a leaf from a non-induced LhGr/pHtop-FT plant; GUS staining of a leaf from a Col wild type plant.
The arabidopsis FT cDNA was inserted into the pHTOP vector system to facilitate inducible expression of the gene using heterologous transcription factor system LhG4^19,27.
This inducible system allows for simultaneous expression of two genes from the same reporter construct. In the experiment described here the GUS gene was used as a second gene in addition to FT.

## C[C@@H]1C[C@H]2[C@@H]3CCC4=CC(=O)C=C[C@]4(C)[C@@]3(F)[C@@H](O)C[C@]2(C)[C@@]1(O)C(=O)CO [DEX, dexmethasone]
FT gene; 1 mM spray of inducer
  induction in the cDNA level as assayed in real-time RT-PCR: lesser induction
FT gene; LhG4-mGR driver plants, sprayed twice 30 μM
  fold gene induction: 1x
FT gene; pHTOP::FT plants, sprayed twice 30 nM
  fold gene induction: 1x
FT gene; pHTOP::FT plants, sprayed twice 1 μM
  fold gene induction: 20x
FT gene; pHTOP::FT plants, sprayed twice 30 μM
  fold gene induction: 120x
FT gene; plants 3 days after treatment with high level of the DEX inducer
  induction in the cDNA level as assayed in real-time RT-PCR: > 100 fold
FT gene; wild type plants, sprayed twice 30 μM
  fold gene induction: 1x
[1]; LhG4-mGR driver, line S7, sprayed twice 30 μM, unit not in table (b146 speaks of days)
  time to flowering: 20
[1]; pHTOP::FT plants sprayed with 30 mM DEX, 6 days after spraying (FIG. 12)
  emergence of inflorescences: inflorescences have emerged
[1]; pHTOP::FT, line COF3-12, sprayed twice 30 nM
  time to flowering: 20
[1]; pHTOP::FT, line COF3-12, sprayed twice 1 μM
  time to flowering: 20
[1]; pHTOP::FT, line COF3-12, sprayed twice 30 μM
  time to flowering: 16.5
[1]; pHTOP::FT, line COF7-30, sprayed twice 30 nM
  time to flowering: 20
[1]; pHTOP::FT, line COF7-30, sprayed twice 1 μM
  time to flowering: 19
[1]; pHTOP::FT, line COF7-30, sprayed twice 30 μM
  time to flowering: 14.86
[1]; spraying with 30 mM inducer, compared to non-transgenic or non-sprayed plants
  reduction of time to flowering: up to 6 days
[1]; wild type, line Col, sprayed twice 30 μM
  time to flowering: 20
[2]; pHTOP-FT + LhG4-GR plants grown in the presence of DEX (30 μM MS-DEX plate, FIG. 5)
  flowering: accelerated flowering
[2]; pHTOP-FT + LhG4-GR plants grown in the presence of DEX (FIG. 5)
  GUS staining (reporter gene activity): GUS staining

Source: patent publication US7626082B2, “Flowering induction” (Agriculture Victoria Services Pty Ltd., priority 2003, dated 2009)
